{"source": "paper PMC12399242", "about": "(Acta Pharmaceutica Sinica. B, 2025)", "key": {"[1]": {"biological_target": "T1, CYP1A2 (Homo sapiens, UniProt P05177)", "T1 construct": "An incubation system of human liver microsomes (20 μL, 1.5 mg/mL); from tissue; host or cells: human liver microsomes", "assay": "CYP enzyme inhibition assay, CYP1A2", "format": "in vitro ADME", "settings": "human liver microsomes", "description": "(§1) An incubation system of human liver microsomes (20 μL, 1.5 mg/mL), 20 μL probe substrates, and 50 μL test compound in Tris (0.1 mol/L) was pre-incubated at 37 °C for 10 min, and then initiated by adding NADPH (10 μL, 10 mmol/L). […] Finally, the sample was centrifugated to obtain the supernatant for LC‒MS/MS analysis."}, "[2]": {"biological_target": "T2, CYP2C19 (Homo sapiens, UniProt P33261)", "T2 construct": "An incubation system of human liver microsomes (20 μL, 1.5 mg/mL); from tissue; host or cells: human liver microsomes", "assay": "CYP enzyme inhibition assay, CYP2C19", "format": "in vitro ADME", "settings": "human liver microsomes", "description": "as §1"}, "[3]": {"system": "HIV-1 Y181C", "assay": "Antiviral activity against HIV-1 mutant Y181C in MT-4 cells", "format": "cell-based"}, "[4]": {"assay": "Plasma protein binding assay (equilibrium dialysis)", "format": "in vitro ADME", "settings": "rat plasma, dialysis 37 °C, read-out: plasma protein binding rate (%PPB) (converted)", "description": "The DMSO solution of A12 was diluted to 100 μmol/L with MeOH:H2O (1:1) and then added to the pre-loaded plasma to obtain plasma samples with a test concentration of 1 μmol/L. Subsequently, 100 μL of control dialysis buffer (phosphate buffer + 0.002% Tween-80) and 100 μL of A12 plasma sample were transferred to the receiver and the donor side of dialysis chambers, respectively, two copies of each sample. The dialysis system was incubated in a shaker (37 °C, 6 h). Upon completion, 20 μL of samples were removed from each of the buffer and plasma chambers. After adding aliquots control plasma, PBS (0.002% Tween-80) respectively, 250 μL methanol solution with internal standard was added into each sample. The solution was mixed and centrifuged (3800 rpm, 10 min) to obtain the supernatant for LC‒MS/MS analysis."}, "[5]": {"system": "HIV-1 F227L + V106A", "assay": "microbe, parasite or virus in culture", "format": "cell-based", "settings": "Human immunodeficiency virus 1, MT4, read-out: EC50 F227L + V106A"}}, "data": [{"molecule": "Cc1cc(-c2ccc(C#N)cc2)cc(C)c1Nc1nc(Nc2ccc(C#N)cc2)ncc1F", "note": "[A12, 4′-((2-((4-Cyanophenyl)amino)-5-fluoropyrimidin-4-yl)amino)-3′,5′-dimethyl-[1,1′-biphenyl]-4-carbonitrile]", "values": [{"measurement": "IC50", "setting": "[1]", "value": "> 25000", "unit": "nM"}, {"measurement": "IC50", "setting": "[2]", "value": 14500, "unit": "nM"}, {"measurement": "EC50", "setting": "[3]; Human immunodeficiency virus 1, MT4, read-out: EC50 Y181C", "value": "7.1 ± 1.2", "unit": "nM"}, {"measurement": "fold higher efficacy against Y181C than toward RES056", "setting": "[3]; ratio of EC50 values", "value": 6.2, "unit": "fold"}, {"measurement": "fraction unbound at 6 h, 1 μmol/L", "setting": "[4]", "value": 0.005}, {"measurement": "EC50", "setting": "[5]", "value": "157 ± 64", "unit": "nM"}]}]}
